Reference: article PMC11060137, “A Phase I Study of KIN-3248, an Irreversible Small-molecule Pan-FGFR Inhibitor, in Patients with Advanced FGFR2/3-driven Solid Tumors” (Cancer Research Communications, 2024)
Like-named read-outs stand apart in the source and are kept apart here.

Legend:
[1] = Plasma pharmacokinetics in patients (LC/MS-MS, noncompartmental); assay type: in vivo, human
Method: Blood for pharmacokinetic analysis was collected C1D1 (pretreatment and postdose at 0.25, 0.5, 1, 2, 4, 6, 8, 10 hours), […] (pretreatment, postdose at 1 and 2 hours), C1D8 and day 15 (pretreatment, postdose 1 hour), C2D1 (pretreatment, postdose at 0.25, 0.5, 1, 2, 4, 6, 8, 10 hours), and pretreatment and 1 hour postdose on day 1 of C3, C4 and cycle 5. KIN-3248 concentration was determined at each timepoint by an established and validated LC/MS-MS assay.

[2] = system: advanced solid tumors harboring FGFR2 and/or FGFR3 gene alterations; assay: Antitumor activity by RECIST v1.1; assay type: in vivo, human
[3] = system: serum phosphate; assay: Serum phosphate as pharmacodynamic biomarker; assay type: in vivo, human
Method: (§1) As FGFR1 is expressed in renal tubules and pharmacologic inhibition of FGFR1 leads to phosphate retention ([18]), serum phosphate levels were measured at each study visit as a pharmacodynamic biomarker. Paired pretreatment and on-treatment biopsies (cycle 1 day 8 to day 21) were collected and analyzed for phospho-ERK and total ERK by IHC. DUSP6 gene expression was measured in tumor samples using RNA ISH (RNAscope; probes from Advanced Cell Diagnostics).

[4] = system: phospho-ERK; assay: Phospho-ERK relative to total ERK by IHC in paired biopsies; assay type: in vivo, human
Method: as §1

[5] = system: ctDNA; assay: ctDNA molecular response (change in mean VAF, PredicineATLAS); assay type: in vivo, human; conditions: after 1 cycle; 26 patients evaluable for RECIST and ctDNA response
Description: Whole blood was collected into Streck Cell Free BCT DNA tubes on cycle 1 day 1 and cycle 2 day 1. Samples were processed to extract plasma followed by cell-free DNA isolation, which was then interrogated by PredicineATLAS, a 600 gene assay able to detect SNVs, indels, rearrangements, fusions, and copy-number gains, as described previously ([19]).
For each patient with available paired ctDNA, the change in ctDNA after one cycle of treatment was summarized by calculating the mean variant allele frequency (VAF) of all somatic mutations at each timepoint and then taking the ratio as follows: [(mean VAF^C2D1/mean VAF^C1D1) −1]*100 ([20]). For somatic mutations detected in only one sample of a patient-matched pair, the VAF was imputed to be zero for calculation purposes, when the mutation was not detected. Change in match pair ctDNA was correlated both categorically with RECIST v 1.1 response and continuously (Pearson R) with the best % change in target lesions. Biomarker analyses were conducted using R [R Core Team 2023 ([21])].

[6] = system: patients with advanced solid tumors harboring FGFR2 and/or FGFR3 gene alterations
Method: The study was divided into two parts. […] The secondary objectives included antitumor activity in Part A, determination of pharmacokinetics and pharmacodynamics.
Dose level 1 was started at 5 mg oral daily, and patients were escalated on study to 50 mg daily. On the basis of ongoing efficacy, toxicity, and pharmacokinetic analysis, a planned amendment added additional cohorts up to 80 mg orally daily to define the MTD/RP2D. […] One cycle was 28 days of continuous dosing. Intrapatient dose escalation after safely tolerating two cycles was allowed if per protocol criteria were met. Patients continued therapy until evidence of disease progression, intolerance or unacceptable toxicity, withdrawal of consent, investigator decision, sponsor decision, or death.
Patients were evaluated with medical history, physical examinations, and clinical laboratory on days 1, 8, 15, and 22 of cycle 1; days 1 and 15 from cycle 2 through cycle 5; and day 1 of each subsequent cycle. […] Except for hyperphosphatemia, adverse events (AE) were graded according to the NCI-CTCAE (Common Terminology Criteria for Adverse Events) Version 5.0 at each study visit and for approximately 30 days following end of treatment.
The primary endpoints for the overall study, included: the incidence of DLTs, incidence of AEs, treatment-emergent AEs (TEAE), and treatment-related AEs (TRAE).

SMILES: C=CC(=O)N1C[C@@H](n2nc(C#Cc3c(F)cc4c(ncn4C4CC4)c3F)c(C(N)=O)c2NC)C[C@@H]1COC [KIN-3248]
- Exposure versus dose ([1]; 5-50 mg): generally dose proportional
- Concentrations in Asian (China, Taiwan, Korean) versus non-Asian patients ([1]; exploratory analysis): not a qualitative difference
- Accumulation ([1]; first two cycles): not observed
- Apparent clearance (CL/F) ([1]; human, in vivo): 23,300-32,100 mL/hour
- Steady-state geometric mean half-life (t1/2) ([1]; human, in vivo): approximately 4 hours
- Volume of distribution (V/F) ([1]; human, in vivo): 135,000-200,000 mL
- Best response in pretreated ICC patients with FGFR2 kinase domain resistance mutations ([2]; 3 patients): progressive disease
- Response in FGFR2/3 fusion patients ([2]; 5 patients): 20%
- ORR ([2]; 54 patients): 9.25%
- Responders among FGFR inhibitor pretreated patients with acquired FGFR resistance mutations in ctDNA ([2]; of 4 patients, gastric cancer): 1
- Confirmed responders among FGFR inhibitor experienced patients ([2]; of 23 patients): 1
- Confirmed responders among FGFR inhibitor naïve patients ([2]; of 31 patients): 3
- Responders among FGFR inhibitor naïve patients ([2]; of 31 patients): 4
- Patients achieving CR ([2]; of 54 patients enrolled): none
- Patients achieving PR ([2]; of 54 patients enrolled): 5
- DCR ([2]; total population): 46%
- Patients achieving SD ([2]; twenty patients): 37.0%
- Serum phosphate versus dose and exposure ([3]; 54 participants): increased with dose and exposure
- Onset of serum phosphate elevations ([3]; all dose levels): within the f irst week
- Phospho-ERK relative to total-ERK ([4]; eleven paired biopsy samples, IHC): trend toward reduction
- Samples tested with a reduction in p-ERK ([4]; paired pretreatment and on-treatment biopsies): 50%
- Patients with greater than 50% decrease in mean VAF [5]: Six
- Patients with treatment reduced and discontinued because of TEAEs ([6]; 7 patients): 13.0%
- Patients with treatment-related grade 3 events ([6]; 11 of 54 patients): 20.4%
- Patients with treatment interrupted because of TEAEs ([6]; 16 patients): 29.6%
- Patients with TEAE grade ≥3 events ([6]; 25 of 54 patients): 46.3%
- Patients with TRAEs of any grade ([6]; 47 of 54 patients): 87.0%
- Patients with TEAEs of any grade ([6]; 53 of 54 patients): 98.1%
- TRAE of any grade: diarrhea ([6]; 54 patients): 25.9%
- TRAE of any grade: hyperphosphatemia ([6]; 54 patients): 64.8%
- TRAE of any grade: stomatitis ([6]; 54 patients): 16.7%
- Number of dose-limiting toxicities (DLT) ([6]; 54 patients, 5-50 mg orally daily, DLT at dose level 1 (5 mg): grade 3 drug hypersensitivity reaction): one
- Patient with any TEAE, n (%) ([6]; CTCAE (V5) Grade 1–2, N = 54): 28 (51.9%)
- TEAE Alanine aminotransferase increased, n (%) ([6]; CTCAE (V5) Grade 1–2, N = 54): 5 (9.3%)
- TEAE Aspartate aminotransferase increased, n (%) ([6]; CTCAE (V5) Grade 1–2, N = 54): 4 (7.4%)
- TEAE Blood and lymphatic system disorders, n (%) ([6]; CTCAE (V5) Grade 1–2, N = 54): 9 (16.7%)
- TEAE Blood creatinine increased, n (%) ([6]; CTCAE (V5) Grade 1–2, N = 54): 7 (13.0%)
- TEAE Constipation, n (%) ([6]; CTCAE (V5) Grade 1–2, N = 54): 12 (22.2%)
- TEAE Decreased appetite, n (%) ([6]; CTCAE (V5) Grade 1–2, N = 54): 6 (11.1%)
- TEAE Diarrhea, n (%) ([6]; CTCAE (V5) Grade 1–2, N = 54): 17 (31.5%)
- TEAE Dry mouth, n (%) ([6]; CTCAE (V5) Grade 1–2, N = 54): 8 (14.8%)
- TEAE Eye disorders, n (%) ([6]; CTCAE (V5) Grade 1–2, N = 54): 12 (22.2%)
- TEAE Fatigue, n (%) ([6]; CTCAE (V5) Grade 1–2, N = 54): 11 (20.4%)
- TEAE Gastrointestinal disorders, n (%) ([6]; CTCAE (V5) Grade 1–2, N = 54): 35 (64.8%)
- TEAE General disorders and administration site conditions, n (%) ([6]; CTCAE (V5) Grade 1–2, N = 54): 18 (33.3%)
- TEAE Hypercalcemia, n (%) ([6]; CTCAE (V5) Grade 1–2, N = 54): 5 (9.3%)
- TEAE Hyperphosphatemia, n (%) ([6]; CTCAE (V5) Grade 1–2, N = 54): 29 (53.7%)
- TEAE Infections and infestations, n (%) ([6]; CTCAE (V5) Grade 1–2, N = 54): 4 (7.4%)
- TEAE Investigations, n (%) ([6]; CTCAE (V5) Grade 1–2, N = 54): 19 (35.2%)
- TEAE Metabolism and nutrition disorders, n (%) ([6]; CTCAE (V5) Grade 1–2, N = 54): 30 (55.6%)
- TEAE Musculoskeletal and connective tissue disorders, n (%) ([6]; CTCAE (V5) Grade 1–2, N = 54): 14 (25.9%)
- TEAE Nausea, n (%) ([6]; CTCAE (V5) Grade 1–2, N = 54): 6 (11.1%)
- TEAE Nervous system disorders, n (%) ([6]; CTCAE (V5) Grade 1–2, N = 54): 7 (13.0%)
- TEAE Psychiatric disorders, n (%) ([6]; CTCAE (V5) Grade 1–2, N = 54): 7 (13.0%)
- TEAE Respiratory, thoracic, and mediastinal disorders, n (%) ([6]; CTCAE (V5) Grade 1–2, N = 54): 7 (13.0%)
- TEAE Skin and subcutaneous tissue disorders, n (%) ([6]; CTCAE (V5) Grade 1–2, N = 54): 14 (25.9%)
- TEAE Stomatitis, n (%) ([6]; CTCAE (V5) Grade 1–2, N = 54): 11 (20.4%)
- TEAE Vascular disorders, n (%) ([6]; CTCAE (V5) Grade 1–2, N = 54): 5 (9.3%)
- Patient with any TEAE, n (%) ([6]; CTCAE (V5) Grade 3, N = 54): 18 (33.3%)
- TEAE Alanine aminotransferase increased, n (%) ([6]; CTCAE (V5) Grade 3, N = 54): 1 (1.9%)
